Reference: EP1156056A1, “5-GLYCOSYLOXY-6-HYDROXYNAPHTHO 2,3-f]QUINOLINE-7,12-DIONE HAVING ANTICANCER ACTIVITIES” (ZAIDAN HOJIN BISEIBUTSU KAGAKU KENKYU KAI, priority 1999, dated 2000)
≈ marks a conversion by molar mass, not a printed value. Like-named read-outs stand apart in the source and are kept apart here.

Key:
Format in all cases: cell-based
[1] = system: human mastocarcinoma (MCF7); experiment: Inhibition of proliferation of cancer cells in culture (Test Example 1); conditions: 72 hours cultivation, read-out: Concentration of test compound to inhibit the proliferation of cancer cells by 50 %
Procedure: (§1) A culture medium for cancer cells was put into test tubes. To the culture medium in each tube, there was transplanted each of such various mouse cancer cells or human cancer cells as shown in Table 1 below. The cells so transplanted were cultivated under the conditions at 37°C in an air atmosphere containing 5 % CO2. To the medium containing the cancer cells so cultivated, there was added said Compounds A, B, D, E or F of this invention at different concentrations, as the test compound. […] As the comparative compound, adriamycin now clinically used was tested to repeat the test in the same way.
(§2) Namely, they are mouse colon cancer (colon 26), mouse B-cell lymphoma (LB32T), mouse lymphoma (L-1210), human cervical cancer (HeLa), human acute promyeloleukemia (HL60), human prostatic cancer (PC3), human pudendal squamous cell carcinoma (A431), human pulmonary carcinoma (PC6), human mastocarcinoma (MCF7), human esophageal carcinoma (TT), human prostatic cancer (LNcap) and human colon cancer (DLD-1).

[2] = system: human pulmonary carcinoma (PC6); experiment: as above; conditions: 72 hours cultivation, read-out: Concentration of test compound to inhibit the proliferation of cancer cells by 50 %
Procedure: as §1, §2

[3] = system: human esophageal carcinoma (TT); experiment: as above; conditions: 72 hours cultivation, read-out: Concentration of test compound to inhibit the proliferation of cancer cells by 50 %
Procedure: as §1, §2

[4] = system: human pudendal squamous cell carcinoma (A431); experiment: as above; conditions: A-431, 72 hours cultivation, read-out: Concentration of test compound to inhibit the proliferation of cancer cells by 50 %
Procedure: as §1, §2

[5] = system: human acute promyeloleukemia (HL60); experiment: Inhibition of proliferation of cancer cells in culture (Test Examples 1 and 3)
Procedure: as §1, §2
(§3) The test method and the nature of cancer cells to be tested are the same as those in Test Example 1 given hereinbefore. In this Test Example 3, however, eight kinds of cancer cells indicated in Table 3 below are used, among the twelve kinds of cancer cells which were used in Test Example 1.
(§4) As the test results of measurement, the evaluated values of the concentration of each test compound which could inhibit the proliferation of cancer cells by 50 % (namely, 50 % inhibitory concentration:IC50, µg/ml) are given in Table 3.

[6] = system: human colon cancer (DLD-1); experiment: as above; conditions: for IC50: Homo sapiens
Procedure: as §1, §2, §3, §4

[7] = system: human prostatic cancer (PC3); experiment: as above; conditions: for IC50: Homo sapiens
Procedure: as §1, §2, §3, §4

[8] = system: human prostatic cancer (LNcap); experiment: as above
Procedure: as §1, §2, §3, §4

[9] = system: human cervical cancer (HeLa); experiment: as above
Procedure: as §1, §2, §3, §4

mouse lymphoma (L-1210) = experiment: as above; conditions: L1210, Test Example 3, Compounds N to T used as trifluoroacetate, read-out: IC50
Procedure: as §1, §2, §3, §4

[10] = system: mouse colon cancer (colon 26); experiment: as above; conditions: Colon26, Test Example 3, Compounds N to T used as trifluoroacetate, read-out: IC50
Procedure: as §1, §2, §3, §4

[11] = system: mouse B-cell lymphoma (LB32T); experiment: as above; conditions: Test Example 3, Compounds N to T used as trifluoroacetate, read-out: IC50
Procedure: as §1, §2, §3, §4

[12] = 72 hours cultivation, Test Example 1, read-out: Concentration of test compound to inhibit the proliferation of cancer cells by 50 %, IC50
[13] = Test Example 1, relative to adriamycin
[14] = HL-60, Test Example 3, Compounds N to T used as trifluoroacetate, read-out: IC50
[15] = Test Example 3, Compounds N to T used as trifluoroacetate, read-out: IC50
[16] = LNCap, Test Example 3, Compounds N to T used as trifluoroacetate, read-out: IC50
[17] = Test Example 3, relative to adriamycin

Compound | IC50 (mouse lymphoma (L-1210)) | IC50 [5, 14] | IC50 [10] | IC50 [6, 15] | IC50 [7, 15] | IC50 [8, 16] | IC50 [11] | IC50 [9, 15] | other results
C[C@@H]1O[C@@H](Oc2c(O)c3c(c4cccnc24)C(=O)c2ccccc2C3=O)[C@H](F)[C@H](O)[C@H]1N [Compound F, 5-(4-amino-2,4,6-trideoxy-2-fluoro-α-L-mannopyranosyloxy)-6-hydroxynaphtho[2,3-f]quinoline-7,12-dione] |  |  |  |  |  |  |  |  | IC50 [1]: 2.46 µg/mL (≈ 5.61 µM); IC50 [2]: 2.92 µg/mL (≈ 6.66 µM); IC50 [3]: 3.48 µg/mL (≈ 7.94 µM); IC50 [4]: 2.25 µg/mL (≈ 5.13 µM); IC50 ([5]; HL-60, 72 hours cultivation, Test Example 1, read-out: Concentration of test compound to inhibit the proliferation of cancer cells by 50 %, IC50): 0.11 µg/mL (≈ 0.251 µM); IC50 [6, 12]: 0.17 µg/mL (≈ 0.388 µM); anticancer activities against DLD-1, times higher than those of adriamycin [6, 13]: 11 times; IC50 [7, 12]: 0.35 µg/mL (≈ 0.798 µM); anticancer activities against PC3, times higher than those of adriamycin [7, 13]: 2.6 times; IC50 ([8]; LNcap, 72 hours cultivation, Test Example 1, read-out: Concentration of test compound to inhibit the proliferation of cancer cells by 50 %, IC50): 0.67 µg/mL (≈ 1.53 µM); IC50 [9, 12]: 0.34 µg/mL (≈ 0.776 µM)
C[C@@H]1O[C@@H](Oc2c(O)c3c(c4cccnc24)C(=O)c2ccccc2C3=O)[C@H](F)[C@H](OC(=O)CCN)[C@@H]1OC(=O)CCN [Compound P, 5-[3,4-di-O-(3-aminopropionyl)-2,6-dideoxy-2-fluoro-α-L-talopyranosyloxy]-6-hydroxynaphtho [2,3-f]quinoline-7,12-dione] | 1.27 µg/mL (≈ 2.18 µM) | 0.6 µg/mL (≈ 1.03 µM) | 0.91 µg/mL (≈ 1.56 µM) | 0.46 µg/mL (≈ 0.791 µM) | 0.55 µg/mL (≈ 0.946 µM) | 1.46 µg/mL (≈ 2.51 µM) | 0.82 µg/mL (≈ 1.41 µM) | 0.89 µg/mL (≈ 1.53 µM) | 
C[C@@H]1O[C@@H](Oc2c(O)c3c(c4cccnc24)C(=O)c2ccccc2C3=O)[C@@H](F)[C@H](OC(=O)CCN)[C@@H]1OC(=O)CCN [Compound Q, 5-[3,4-di-O-(3-aminopropionyl)-2,6-dideoxy-2-fluoro-α-L-galactopyranosyloxy]-6-hydroxynaphtho [2,3-f]quinoline-7,12-dione] | 2.09 µg/mL (≈ 3.59 µM) | 1.09 µg/mL (≈ 1.87 µM) | 1.43 µg/mL (≈ 2.46 µM) | 0.71 µg/mL (≈ 1.22 µM) | 0.79 µg/mL (≈ 1.36 µM) | 1.54 µg/mL (≈ 2.65 µM) | 0.78 µg/mL (≈ 1.34 µM) | 1.7 µg/mL (≈ 2.92 µM) | 

Continued, in another order:

IC50 (mouse lymphoma (L-1210)) | IC50 [5, 14] | IC50 [10] | IC50 [6, 15] | IC50 [7, 15] | IC50 [8, 16] | IC50 [11] | IC50 [9, 15] | Compound | other results
0.72 µg/mL (≈ 1.41 µM) | 0.54 µg/mL (≈ 1.06 µM) | 0.46 µg/mL (≈ 0.901 µM) | 0.18 µg/mL (≈ 0.353 µM) | 0.39 µg/mL (≈ 0.764 µM) | 0.47 µg/mL (≈ 0.921 µM) | 0.68 µg/mL (≈ 1.33 µM) | 0.29 µg/mL (≈ 0.568 µM) | C[C@@H]1O[C@H](Oc2c(O)c3c(c4cccnc24)C(=O)c2ccccc2C3=O)[C@@H](F)[C@H](OC(=O)CCN)[C@@H]1O [Compound R, 5-[3-O-(3-aminopropionyl)-2,6-dideoxy-2-fluoro-β-L-galactopyranosyloxy]-6-hydroxynaphtho [2,3-f]quinoline-7,12-dione] | anticancer activity against DLD-1, times higher than that of adriamycin [6, 17]: 19 times; anticancer activity against PC3, times higher than that of adriamycin [7, 17]: 2.9 times
1.13 µg/mL (≈ 1.94 µM) | 0.68 µg/mL (≈ 1.17 µM) | 0.65 µg/mL (≈ 1.12 µM) | 0.42 µg/mL (≈ 0.722 µM) | 0.55 µg/mL (≈ 0.946 µM) | 0.52 µg/mL (≈ 0.894 µM) | 0.79 µg/mL (≈ 1.36 µM) | 0.64 µg/mL (≈ 1.1 µM) | C[C@@H]1O[C@H](Oc2c(O)c3c(c4cccnc24)C(=O)c2ccccc2C3=O)[C@@H](F)[C@H](OC(=O)CCN)[C@@H]1OC(=O)CCN [Compound S, 5-[3,4-di-O-(3-aminopropionyl)-2,6-dideoxy-2-fluoro-β-L-galactopyranosyloxy]-6-hydroxynaphtho[2,3-f] quinoline-7,12-dione] | 
1.17 µg/mL (≈ 1.79 µM) | 0.78 µg/mL (≈ 1.2 µM) | 0.55 µg/mL (≈ 0.843 µM) | 0.45 µg/mL (≈ 0.69 µM) | 0.65 µg/mL (≈ 0.996 µM) | 0.57 µg/mL (≈ 0.873 µM) | 0.8 µg/mL (≈ 1.23 µM) | 0.15 µg/mL (≈ 0.23 µM) | C[C@@H]1O[C@H](Oc2c(OC(=O)CCN)c3c(c4cccnc24)C(=O)c2ccccc2C3=O)[C@@H](F)[C@H](OC(=O)CCN)[C@@H]1OC(=O)CCN [Compound T, 5-[3,4-di-O-(3-aminopropionyl)-2,6-dideoxy-2-fluoro-β-L-galactopyranosyloxy)-6-(3-aminopropionyloxy)-naphtho[2,3-f]quinoline-7,12-dione] | 
